According to ChEMBL document CHEMBL1201862, “PubChem BioAssay data set” (2004):
Activity calls are given as the source filed them.

Tests used:
[1] = PAX5 activity inhibitors, dose response, selectivity assay for PAX8 inhibitor project, cell-based, plate reader, dry powder samples (AID 743047); type: functional;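 also: HEK293 cells carrying a Pax5 driven CD19 promoter luciferase reporter; potency of inhibitors that lower reporter luminescence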
[2] = A2780 ovarian cancer cell cytotoxicity, dose response, cytotoxicity control, plate reader, dry powder samples (AID 743046); type: functional, cell-based
[3] = cytotoxicity dependent on PAX8, dose response, cell-based, plate reader, dry powder (AID 743049); type: functional
[4] = Luminescence Cell-Based Dose Response HTS to Identify Inhibitors of 5'UTR Stem-Loop Driven Prion Protein mRNA Translation in H4 Neuroglioblastoma Cells. [Related pubchem assays: 1827 (Project Summary), 1813 (Primary HTS)]; type: functional
[5] = HEK293T cell cytotoxicity, dose response, cytotoxicity control for HIV Vif inhibitor project, cherry-picks (AID 652208); type: functional, cell-based
[6] = target: Protein disulfide-isomerase (Homo sapiens, UniProt P07237); assay: PDI inhibitors, insulin aggregation turbidity, dose response, biochemical, absorbance, cherry-picked samples (AID 602350); type: functional
[7] = IOSE-T80 ovarian epithelial cell cytotoxicity, dose response, cytotoxicity control for PAX8 inhibitor project, plate reader, dry powder samples (AID 743045); type: functional, cell-based
Vero [8] = assay: cells; type: functional; conditions: Chlorocebus sabaeus
[9] = cytotoxicity in COV434 cells, dose response, cytotoxicity control for PAX8 inhibitor project, cell-based, plate reader, dry powder, SA7 (AID 743145); type: functional
[10] = cytotoxicity in COV362 ovarian cancer cells, dose response, cytotoxicity control for PAX8 inhibitor project, cell-based, plate reader, dry powder, SA12 (AID 743144); type: functional
INS1 = assay: beta cell apoptosis inhibitors, cytokine rescue, dose response, luminescence, retest (AID 449756); type: functional, cell-based; conditions: Rattus norvegicus, INS1;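 also: cell death triggered by IL-1 beta plus TNF-alpha plus IFN-gamma mixture; protective hits raise ATP signal compared with cytokine alone wells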
BJ [11] = assay: cells; type: functional, cell-based; conditions: Homo sapiens
[12] = IGROV1 ovarian cancer cell cytotoxicity, dose response, PAX8 inhibitor project, plate reader, dry powder samples (AID 743043); type: functional, cell-based; conditions: IGROV-1
Vero [13] = assay: cells; type: functional, cell-based; conditions: Chlorocebus sabaeus
[14] = inhibitors of SNCA 5'UTR-driven reporter translation, confirmation, H4 neuroglioma cells, luminescence (AID 1988); type: functional, cell-based
BJ [15] = assay: cytotoxicity toward BJ-TERT fibroblasts, dose response, cell-based, RAS-independent, luminescence (AID 1933); type: functional; conditions: Homo sapiens
[16] = cytotoxicity in OVCAR4 cells, dose response, cytotoxicity control for PAX8 inhibitor project, cell-based, plate reader, dry powder, SA11 (AID 743150); type: functional; conditions: OVCAR-4
[17] = Fluorescence-based cell-based high throughput dose response assay for inhibitors of the interaction of nucleotide-binding oligomerization domain containing 2 (NOD2) and the receptor-interacting serine-threonine kinase 2 (RIPK2).; type: functional; conditions: Homo sapiens
[18] = target: T1, Heat shock factor protein 1 (Mus musculus, UniProt P38532); assay: HSF1 potentiators in luciferase reporter cells, confirmation, cell-based, NIH3T3, luminescence, dose retest (AID 435004); type: functional;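 also: stress induced by proteasome inhibitor MG132 added 30 min after compound; luciferase reporter driven by HSF1 response element in NIH3T3 cells; actives raise luminescence as potentiators of the MG132 stress response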
T1 sequence (P38532 whole entry): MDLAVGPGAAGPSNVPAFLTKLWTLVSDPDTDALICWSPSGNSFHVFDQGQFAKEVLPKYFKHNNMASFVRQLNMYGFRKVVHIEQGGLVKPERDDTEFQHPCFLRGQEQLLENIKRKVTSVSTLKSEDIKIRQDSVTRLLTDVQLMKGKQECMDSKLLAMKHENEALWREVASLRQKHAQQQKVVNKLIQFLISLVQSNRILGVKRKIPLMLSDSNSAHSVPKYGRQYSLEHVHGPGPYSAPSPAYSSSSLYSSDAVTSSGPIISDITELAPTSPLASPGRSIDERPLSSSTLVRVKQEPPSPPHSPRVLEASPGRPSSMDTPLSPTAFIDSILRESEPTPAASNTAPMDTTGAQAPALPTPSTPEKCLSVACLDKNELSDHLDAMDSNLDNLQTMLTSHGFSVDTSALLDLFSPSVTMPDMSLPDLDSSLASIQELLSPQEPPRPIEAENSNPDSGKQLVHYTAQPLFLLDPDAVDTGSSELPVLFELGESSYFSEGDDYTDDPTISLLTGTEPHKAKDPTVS

BJ [19] = assay: cytotoxicity toward Ras-transformed BJeLR fibroblasts, dose response, cell-based, alamar blue fluorescence, cherrypicked samples (AID 2631); type: functional; conditions: Homo sapiens;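 also: confirmatory dose-response assay in RAS-dependent BJ fibroblasts engineered with TERT, LT and ST, with cytotoxicity read by fluorescence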
[20] = cytotoxicity in OV-90 ovarian cancer cells, dose response, PAX8 inhibitor project, cell-based, plate reader, dry powder, SA8 (AID 743149); type: functional
[21] = PAX2 cell-based inhibition, dose response, selectivity assay for PAX8 inhibitor project, plate reader, dry powder samples (AID 743048); type: functional;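 also: HEK293 cells carrying a WT1 promoter luciferase reporter driven by expressed Pax2; potency is for inhibition of Pax2 driven reporter signal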
[22] = cytotoxicity toward DRD oncogenic fibroblasts, dose response, cell-based, non-viral oncogenic, luminescence (AID 1934); type: functional; conditions: Homo sapiens
BJ [23] = assay: cytotoxicity toward BJ-TERT-LT-ST fibroblasts, dose response, cell-based, RAS-independent, luminescence (AID 1935); type: functional; conditions: Homo sapiens;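 also: BJ fibroblasts immortalized with TERT plus LT and ST oncogenes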
Paired box protein Pax-8 = Paired box protein Pax-8 (Homo sapiens, UniProt Q06710); assay: inhibitors of PAX8-driven TPO luciferase reporter, dose response, RMG-I cells, cherry-pick (AID 687027); type: functional, cell-based;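 also: luciferase reporter driven by Pax8 target thyroperoxidase promoter measured by SteadyGlo luminescence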
[24] = NIH:OVCAR-3 ovarian cancer cell cytotoxicity, dose response, PAX8 inhibitor project, plate reader, dry powder samples (AID 743044); type: functional, cell-based
[25] = inhibitors of firefly luciferase expression or activity, dose response, H4 neuroglioma cells, luminescence (AID 1990); type: functional, cell-based
[26] = target: Multidrug resistance protein CDR2 (Candida albicans (strain SC5314 / ATCC MYA-2876) (Yeast), UniProt P78595); assay: CaCDR2 efflux pump inhibitors in yeast, dose response, S. cerevisiae AD1-8u, singleplex, Cherry Pick1 hits (AID 588604); type: functional
[27] = target: Multidrug resistance protein CDR1 (Candida albicans, UniProt P43071); assay: CaCDR1 efflux pump inhibitors in yeast, dose response, S. cerevisiae AD1-8u, singleplex, Cherry Pick1 hits (AID 588606); type: functional
Beta-galactosidase = Beta-galactosidase (Escherichia coli, UniProt Q8VNN2); assay: Dose response counterscreen for EBI2 assay utilizing the enzyme, b-galactosidase.; type: functional
[28] = target: Benomyl/methotrexate resistance protein (Candida albicans, UniProt P28873); assay: CaMdr1 efflux pump inhibitor potency, dose response, singleplex, Cherry Pick1 hits (AID 588608); type: functional
[29] = target: Serine/threonine-protein kinase pim-3 (Homo sapiens, UniProt Q86V86); type: functional;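 also: value obtained as one member of a broad kinase panel profiling effort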
[30] = target: Serine/threonine-protein kinase DCLK1 (Homo sapiens, UniProt O15075); type: functional;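 also: affinity for DCLK1 (listed as DCAMKL1) measured as one member of a kinome-wide kinase profiling panel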
Aurora kinase B = Aurora kinase B (Homo sapiens, UniProt Q96GD4); type: functional
[31] = target: Serine/threonine-protein kinase pim-1 (Homo sapiens, UniProt P11309); type: functional
[32] = target: Serine/threonine-protein kinase PAK 1 (Homo sapiens, UniProt Q13153); type: functional
LIM domain kinase 1 = LIM domain kinase 1 (Homo sapiens, UniProt P53667); assay: Navigating the Kinome. Panel member name: LIMK1; type: functional
[33] = target: MAP kinase-interacting serine/threonine-protein kinase 2 (Homo sapiens, UniProt Q9HBH9); type: functional
[34] = target: Serine/threonine-protein kinase MRCK alpha (Homo sapiens, UniProt Q5VT25); type: functional
[35] = target: RAC-gamma serine/threonine-protein kinase (Homo sapiens, UniProt Q9Y243); type: functional
[36] = target: Interleukin-1 receptor-associated kinase 4 (Homo sapiens, UniProt Q9NWZ3); type: functional
[37] = target: Serine/threonine-protein kinase BRSK1 (Homo sapiens, UniProt Q8TDC3); type: functional;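 also: measured within a kinome-wide kinase panel, with the target listed as KIAA1811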
[38] = target: Receptor-type tyrosine-protein kinase FLT3 (Homo sapiens, UniProt P36888); type: functional;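 also: FLT3 was tested as one member of a kinome-wide kinase panel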
[39] = target: cAMP-dependent protein kinase catalytic subunit PRKX (Homo sapiens, UniProt P51817); type: functional
[40] = target: Inhibitor of nuclear factor kappa-B kinase subunit epsilon (Homo sapiens, UniProt Q14164); assay: Navigating the Kinome. Panel member name: IKBKE; type: functional
Activin receptor type-1 = Activin receptor type-1 (Homo sapiens, UniProt Q04771); assay: Navigating the Kinome. Panel member name: ACVR1; type: functional
[41] = target: Platelet-derived growth factor receptor alpha (Homo sapiens, UniProt P16234); assay: Navigating the Kinome. Panel member name: PDGFRA; type: functional
[42] = target: Death-associated protein kinase 3 (Homo sapiens, UniProt O43293); type: functional;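 also: measured as one member of a kinome-wide profiling panel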
[43] = target: Cyclin-dependent kinase 8 (Homo sapiens, UniProt P49336); assay: Navigating the Kinome. Panel member name: CDK8; type: functional
[44] = target: Dual specificity protein kinase CLK4 (Homo sapiens, UniProt Q9HAZ1); type: functional
[45] = target: Dual specificity tyrosine-phosphorylation-regulated kinase 1B (Homo sapiens, UniProt Q9Y463); assay: Navigating the Kinome. Panel member name: DYRK1B; type: functional
[46] = target: Dual specificity tyrosine-phosphorylation-regulated kinase 1A (Homo sapiens, UniProt Q13627); type: functional;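 also: measured against DYRK1A as one member of a broad kinome profiling panel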
[47] = target: Serine/threonine-protein kinase TBK1 (Homo sapiens, UniProt Q9UHD2); assay: Navigating the Kinome. Panel member name: TBK1; type: functional
[48] = target: Cyclin-dependent kinase 5 (Homo sapiens, UniProt Q00535); type: functional;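 also: CDK5 measured as one member of a kinase profiling panel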
[49] = target: Tyrosine-protein kinase receptor TYRO3 (Homo sapiens, UniProt Q06418); type: functional;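 also: TYRO3 value obtained as one member of a kinome-wide profiling panel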
Aurora kinase A = Aurora kinase A (Homo sapiens, UniProt O14965); type: functional;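 also: value from the Navigating the Kinome kinase panel profiling, panel entry STK6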
[50] = target: Cyclin-dependent kinase 9 (Homo sapiens, UniProt P50750); type: functional;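 also: value from the CDK9 entry of a kinome-spanning kinase panel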
[51] = target: 5'-AMP-activated protein kinase catalytic subunit alpha-1 (Homo sapiens, UniProt Q13131); type: functional
[52] = target: Leukocyte tyrosine kinase receptor (Homo sapiens, UniProt P29376); assay: Navigating the Kinome. Panel member name: LTK; type: functional
[53] = target: Serine/threonine-protein kinase Nek2 (Homo sapiens, UniProt P51955); type: functional
[54] = target: Leucine-rich repeat serine/threonine-protein kinase 2 (Homo sapiens, UniProt Q5S007); type: functional;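 also: value from a broad kinome-wide panel profiling study in which LRRK2 was one of the kinases tested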

LIM domain kinase 1, sequence (P53667 whole entry, the tested form may be a part): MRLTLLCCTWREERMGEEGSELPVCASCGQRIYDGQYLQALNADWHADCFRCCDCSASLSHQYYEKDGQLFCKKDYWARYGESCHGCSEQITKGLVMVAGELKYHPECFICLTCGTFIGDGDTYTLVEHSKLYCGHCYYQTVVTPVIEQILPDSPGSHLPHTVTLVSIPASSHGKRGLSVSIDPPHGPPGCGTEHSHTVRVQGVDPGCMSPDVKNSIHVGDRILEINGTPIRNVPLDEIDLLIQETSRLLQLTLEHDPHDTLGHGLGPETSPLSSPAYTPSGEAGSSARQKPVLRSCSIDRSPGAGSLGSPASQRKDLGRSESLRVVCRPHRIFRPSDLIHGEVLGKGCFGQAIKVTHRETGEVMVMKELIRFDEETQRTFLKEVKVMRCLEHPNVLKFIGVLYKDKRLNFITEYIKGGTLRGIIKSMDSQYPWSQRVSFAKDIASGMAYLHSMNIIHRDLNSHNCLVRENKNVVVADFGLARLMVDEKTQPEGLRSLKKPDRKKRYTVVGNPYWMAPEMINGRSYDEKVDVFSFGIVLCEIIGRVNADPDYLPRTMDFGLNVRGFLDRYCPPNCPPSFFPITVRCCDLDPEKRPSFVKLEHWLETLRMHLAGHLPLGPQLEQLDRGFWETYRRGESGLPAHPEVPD
Serine/threonine-protein kinase TBK1, sequence (Q9UHD2 whole entry): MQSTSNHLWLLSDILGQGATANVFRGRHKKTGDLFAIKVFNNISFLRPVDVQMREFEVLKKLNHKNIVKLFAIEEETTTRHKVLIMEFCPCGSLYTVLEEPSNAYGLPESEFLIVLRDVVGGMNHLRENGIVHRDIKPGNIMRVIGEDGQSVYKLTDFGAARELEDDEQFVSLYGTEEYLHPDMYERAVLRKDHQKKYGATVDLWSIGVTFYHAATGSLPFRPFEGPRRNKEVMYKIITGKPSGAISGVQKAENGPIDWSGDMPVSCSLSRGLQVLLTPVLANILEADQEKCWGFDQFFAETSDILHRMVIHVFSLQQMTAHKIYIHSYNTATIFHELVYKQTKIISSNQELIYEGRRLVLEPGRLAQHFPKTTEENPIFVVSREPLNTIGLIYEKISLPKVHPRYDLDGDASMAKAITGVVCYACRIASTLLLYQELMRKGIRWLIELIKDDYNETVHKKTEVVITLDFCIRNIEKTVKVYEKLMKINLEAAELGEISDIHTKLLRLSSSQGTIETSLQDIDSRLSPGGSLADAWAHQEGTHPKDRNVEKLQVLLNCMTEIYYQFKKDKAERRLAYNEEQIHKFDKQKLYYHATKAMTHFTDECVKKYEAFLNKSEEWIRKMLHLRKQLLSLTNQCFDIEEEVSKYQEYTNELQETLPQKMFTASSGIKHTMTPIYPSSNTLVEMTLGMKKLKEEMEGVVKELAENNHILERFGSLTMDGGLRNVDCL
RAC-gamma serine/threonine-protein kinase, sequence (Q9Y243 whole entry): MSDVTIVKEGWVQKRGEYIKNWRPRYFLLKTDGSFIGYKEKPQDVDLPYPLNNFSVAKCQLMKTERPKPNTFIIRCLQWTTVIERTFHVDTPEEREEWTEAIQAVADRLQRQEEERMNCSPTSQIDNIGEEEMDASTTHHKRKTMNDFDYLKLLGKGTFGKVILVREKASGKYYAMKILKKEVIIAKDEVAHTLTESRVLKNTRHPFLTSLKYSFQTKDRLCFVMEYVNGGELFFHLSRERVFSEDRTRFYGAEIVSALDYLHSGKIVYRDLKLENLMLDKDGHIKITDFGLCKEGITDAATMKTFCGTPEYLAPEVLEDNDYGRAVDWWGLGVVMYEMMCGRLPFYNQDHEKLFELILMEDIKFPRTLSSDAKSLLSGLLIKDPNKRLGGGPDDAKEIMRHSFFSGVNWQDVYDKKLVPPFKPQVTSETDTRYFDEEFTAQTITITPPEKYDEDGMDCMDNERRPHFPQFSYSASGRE
Dual specificity protein kinase CLK4, sequence (Q9HAZ1 whole entry): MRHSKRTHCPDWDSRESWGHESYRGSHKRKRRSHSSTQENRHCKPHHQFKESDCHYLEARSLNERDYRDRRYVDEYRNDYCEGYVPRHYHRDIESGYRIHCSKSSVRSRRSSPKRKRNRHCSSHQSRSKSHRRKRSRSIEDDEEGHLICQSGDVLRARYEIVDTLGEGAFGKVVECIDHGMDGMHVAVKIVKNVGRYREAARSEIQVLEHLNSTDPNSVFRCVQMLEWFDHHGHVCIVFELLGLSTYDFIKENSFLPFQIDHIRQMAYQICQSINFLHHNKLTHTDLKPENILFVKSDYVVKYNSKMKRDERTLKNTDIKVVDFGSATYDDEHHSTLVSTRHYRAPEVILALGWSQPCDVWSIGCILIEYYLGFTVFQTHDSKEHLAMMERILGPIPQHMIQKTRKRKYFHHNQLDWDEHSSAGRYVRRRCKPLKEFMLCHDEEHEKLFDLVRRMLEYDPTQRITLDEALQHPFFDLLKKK
Tyrosine-protein kinase receptor TYRO3, sequence (Q06418 whole entry): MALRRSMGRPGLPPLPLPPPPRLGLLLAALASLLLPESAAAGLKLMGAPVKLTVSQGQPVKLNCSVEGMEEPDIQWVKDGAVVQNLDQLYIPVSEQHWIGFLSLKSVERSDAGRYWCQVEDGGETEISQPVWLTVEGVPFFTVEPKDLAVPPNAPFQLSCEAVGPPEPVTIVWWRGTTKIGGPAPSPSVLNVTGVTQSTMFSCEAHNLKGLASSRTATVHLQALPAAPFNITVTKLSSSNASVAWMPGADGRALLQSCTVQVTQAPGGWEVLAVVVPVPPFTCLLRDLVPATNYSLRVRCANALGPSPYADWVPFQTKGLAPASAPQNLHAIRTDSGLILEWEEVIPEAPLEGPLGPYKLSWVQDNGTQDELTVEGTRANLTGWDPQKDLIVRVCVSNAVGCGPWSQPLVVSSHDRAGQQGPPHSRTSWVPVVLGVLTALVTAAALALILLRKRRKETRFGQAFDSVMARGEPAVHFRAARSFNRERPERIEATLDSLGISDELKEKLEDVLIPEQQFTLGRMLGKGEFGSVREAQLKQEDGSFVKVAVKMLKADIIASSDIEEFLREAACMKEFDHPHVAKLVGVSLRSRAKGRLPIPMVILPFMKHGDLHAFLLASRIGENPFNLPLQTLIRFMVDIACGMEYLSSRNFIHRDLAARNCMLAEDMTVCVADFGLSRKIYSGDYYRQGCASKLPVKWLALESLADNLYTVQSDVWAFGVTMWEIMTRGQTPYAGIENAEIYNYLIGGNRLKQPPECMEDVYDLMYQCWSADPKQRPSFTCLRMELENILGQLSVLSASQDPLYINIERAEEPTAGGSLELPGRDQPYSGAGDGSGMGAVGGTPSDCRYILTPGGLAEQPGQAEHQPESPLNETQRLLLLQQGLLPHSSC
Cyclin-dependent kinase 8, sequence (P49336 whole entry): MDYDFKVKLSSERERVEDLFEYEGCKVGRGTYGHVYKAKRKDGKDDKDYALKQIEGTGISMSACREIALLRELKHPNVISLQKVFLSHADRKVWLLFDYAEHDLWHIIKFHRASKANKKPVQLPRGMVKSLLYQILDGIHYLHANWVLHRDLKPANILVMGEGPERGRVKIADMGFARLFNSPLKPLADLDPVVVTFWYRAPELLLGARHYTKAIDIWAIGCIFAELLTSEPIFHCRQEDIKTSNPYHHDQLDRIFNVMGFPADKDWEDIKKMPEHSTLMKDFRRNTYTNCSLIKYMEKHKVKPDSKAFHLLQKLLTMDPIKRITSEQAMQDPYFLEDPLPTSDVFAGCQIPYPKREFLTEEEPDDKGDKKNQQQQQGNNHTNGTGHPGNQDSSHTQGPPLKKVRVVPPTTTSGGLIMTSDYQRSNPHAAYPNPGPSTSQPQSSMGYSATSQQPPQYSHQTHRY
Aurora kinase A, sequence (O14965 whole entry): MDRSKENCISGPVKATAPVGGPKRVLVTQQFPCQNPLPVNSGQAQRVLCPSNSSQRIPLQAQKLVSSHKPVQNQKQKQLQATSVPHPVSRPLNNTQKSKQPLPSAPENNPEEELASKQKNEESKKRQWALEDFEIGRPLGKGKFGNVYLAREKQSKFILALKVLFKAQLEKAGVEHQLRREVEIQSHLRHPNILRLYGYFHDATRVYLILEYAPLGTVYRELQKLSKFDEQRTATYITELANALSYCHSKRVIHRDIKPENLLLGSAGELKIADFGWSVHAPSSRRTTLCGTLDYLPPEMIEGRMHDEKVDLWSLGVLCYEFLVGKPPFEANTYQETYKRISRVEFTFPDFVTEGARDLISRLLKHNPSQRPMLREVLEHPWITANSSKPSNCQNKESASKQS
Interleukin-1 receptor-associated kinase 4, sequence (Q9NWZ3 whole entry): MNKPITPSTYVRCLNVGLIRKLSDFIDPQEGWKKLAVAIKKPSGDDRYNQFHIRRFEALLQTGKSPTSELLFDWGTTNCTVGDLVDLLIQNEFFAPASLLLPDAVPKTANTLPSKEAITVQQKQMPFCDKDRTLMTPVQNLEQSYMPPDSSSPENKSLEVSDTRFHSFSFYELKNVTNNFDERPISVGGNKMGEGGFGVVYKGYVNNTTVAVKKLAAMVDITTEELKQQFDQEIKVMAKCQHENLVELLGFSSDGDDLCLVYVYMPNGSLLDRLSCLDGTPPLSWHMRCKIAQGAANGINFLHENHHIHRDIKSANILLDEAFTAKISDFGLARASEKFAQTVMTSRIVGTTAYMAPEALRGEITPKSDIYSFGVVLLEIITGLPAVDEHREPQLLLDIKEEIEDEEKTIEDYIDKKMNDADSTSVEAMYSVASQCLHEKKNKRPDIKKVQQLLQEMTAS

COc1ccc(/C=C2\CN(Cc3ccccc3)C/C(=C\c3ccc(OC)c(O)c3)C2=O)cc1O
AC50 [1]: 14.3 µM (active)
AC50 [2]: 12.5 µM (active)
AC50 [3]: 9.32 µM (active)
EC50 [4]: > 120 µM (not active)
AC50 [5]: 5.24 µM (active)
AC50 [6]: 2.98 µM (active)
AC50 [7]: 8.94 µM (active)
CC50 (Vero [8]): 2.75 µM (active)
AC50 [9]: 4.16 µM (active)
AC50 [10]: 4.34 µM (active)
AC50 (INS1): 4.23 µM (active)
EC50 (BJ [11]): 4.4 µM (active)
AC50 [12]: 21.6 µM (active)
IC50 (Vero [13]): 23.2 µM (active)
EC50 [14]: 9.23 µM (inconclusive)
EC50 (BJ [15]): 2.04 µM (active)
AC50 [16]: 4.93 µM (active)
IC50 [17]: 5.53 µM (active)
EC50 [18]: 8.35 µM (active)
EC50 (BJ [19]): 0.435 µM (active)
AC50 [20]: 3.79 µM (active)
AC50 [21]: 14.2 µM (active)
EC50 [22]: 2.65 µM (active)
EC50 (BJ [23]): 2.23 µM (active)
AC50 (Paired box protein Pax-8): 4.63 µM (active)
AC50 [24]: 7.31 µM (active)
EC50 [25]: 8.62 µM (inconclusive)

O=C1C(Cc2ccccc2)Nc2ncnc(N3CCN(c4ccccc4)CC3)c2N1Cc1ccc(Br)cc1 (configuration not stated)
EC50 [26]: 10.8 µM (active)
EC50 [27]: 11.1 µM (active)
IC50 (Beta-galactosidase): 2.54 µM (active)
EC50 [28]: 21.2 µM (active)

NC(=O)c1cccc2[nH]c(-c3cccc(NCCN4CCCC4)n3)nc12
Ki [29]: 1 µM (active)
Ki [30]: > 10 µM (inactive)
Ki (Aurora kinase B): 1.26 µM (active)
Ki [31]: 2 µM (active)
Ki [32]: > 10 µM (inactive)
Ki (LIM domain kinase 1): > 10 µM (inactive)
Ki [33]: 2.51 µM (active)
Ki [34]: > 10 µM (inactive)
Ki [35]: > 10 µM (inactive)
Ki [36]: > 10 µM (inactive)
Ki [37]: 5.01 µM (active)
Ki [38]: 1.26 µM (active)

Cc1cc(=O)[nH]c2[nH]n(-c3ccccc3)c(=O)c12
Ki [39]: 63.1 µM (active)
Ki [40]: 50.1 µM (active)
Ki (Activin receptor type-1): 79.4 µM (active)
Ki [41]: 100 µM (active)
Ki [42]: 63.1 µM (active)
Ki [43]: 39.8 µM (active)
Ki [44]: 10 µM (active)
Ki [45]: 12.6 µM (active)
Ki [46]: 20 µM (active)
Ki [47]: 50.1 µM (active)
Ki (LIM domain kinase 1): 12.6 µM (active)
Ki [48]: 50.1 µM (active)
Ki [49]: 50.1 µM (active)
Ki (Aurora kinase A): 50.1 µM (active)
Ki [50]: 39.8 µM (active)
Ki [51]: 79.4 µM (active)
Ki [52]: 20 µM (active)
Ki [53]: 50.1 µM (active)
Ki [54]: 39.8 µM (active)
